The results in this text go back to publication PMC7218270 (EBioMedicine, 2020).

In brackets after ≈: the same amount, converted by molar mass. Several values for one entry are separate records, joined by “and”; a condition that tells them apart may be missing. Equal entries are not always repeated. Where only a bound is given, the exact number is not on record here.

One experiment deals with Mlicrococcus scarlatinae. The experiment in a line: MIC, planktonic cells. In kind it is cell-based. The note with it: 18 h.
A further experiment deals with P. aeruginosa 103. The experiment in a line: MIC, planktonic cells. It is filed as cell-based. The settings on record: Pseudomonas aeruginosa, 103, 18 h.
Experiment [1] concerns Drug-susceptible P. aeruginosa. The experiment in a line: Resistance study, serial passages. In kind it is cell-based. The settings on record: passages at 1/4 × MIC.
Another experiment relates to E. coli ATCC25922. The experiment in a line: MIC, planktonic cells. It is filed as cell-based. The settings on record: Escherichia coli, ATCC25922, 18 h.
Another experiment relates to P. aeruginosa CMCC10104. In words: MIC, planktonic cells. In kind it is cell-based. The note with it: Pseudomonas aeruginosa, CMCC10104, 18 h.
A further experiment deals with E. coli A2. The experiment in a line: MIC, planktonic cells. It is filed as cell-based. The note with it: Escherichia coli, A2, 18 h.
Another experiment concerns P. aeruginosa 110. In words: MIC, planktonic cells. In kind it is cell-based. The note with it: Pseudomonas aeruginosa, 110, 18 h.
For a further experiment, the system named is P. aeruginosa ATCC27853. In words: MIC, planktonic cells. In kind it is cell-based. The note with it: Pseudomonas aeruginosa, ATCC27853, 18 h.
The subject of another experiment is Enterococcus faecalis. In words: MIC, planktonic cells. It is filed as cell-based. The note with it: 18 h.
The next experiment relates to S. pneumoniae. In words: MIC, planktonic cells. The settings on record: Streptococcus pneumoniae, 18 h. In kind it is cell-based.
For a further experiment, the system named is C. albicans ATCC10231. The experiment in a line: microbe, parasite or virus in culture. In kind it is cell-based. The note with it: Candida albicans, ATCC10231, 72 h.
Another experiment has as its system C. neoformans 001. In words: microbe, parasite or virus in culture. The settings on record: Cryptococcus neoformans, 001, 72 h. It is filed as cell-based.
In the next experiment the test system is C. albicans 006. The experiment in a line: microbe, parasite or virus in culture. In kind it is cell-based. The note with it: Candida albicans, 006, 72 h.
Another experiment relates to C. neoformans 4906. In words: microbe, parasite or virus in culture. In kind it is cell-based. The note with it: Cryptococcus neoformans, 4906, 72 h.
Another experiment relates to C. neoformans 6120. In words: microbe, parasite or virus in culture. It is filed as cell-based. The note with it: Cryptococcus neoformans, 6120, 72 h.
Experiment [2] has as its system Drug-susceptible C. albicans. It is filed as cell-based.
A further experiment has as its system C. neoformans ATCC28957. In words: microbe, parasite or virus in culture. It is filed as cell-based. The settings on record: Cryptococcus neoformans, ATCC28957, 72 h.
Experiment [3] deals with fluconazole-resistant C. albicans. More on the design: species or system G. mellonella. The settings on record: in vivo.
The next experiment has as its system C. albicans 7248. In words: microbe, parasite or virus in culture. It is filed as cell-based. The note with it: Candida albicans, 7248, 72 h.

On to `CC(C)(O/N=C(\C(=O)N[C@@H]1C(=O)N2C(C(=O)[O-])=C(C[n+]3ccccc3)CS[C@H]12)c1csc(N)n1)C(=O)O` [Ceftazidime], for which the MIC against Mlicrococcus scarlatinae was more than 128 µg/mL; with P. aeruginosa 103, more than 128 µg/mL; against E. coli ATCC25922, 1 µg/mL (≈ 1.83 µM); against P. aeruginosa CMCC10104, 0.5 µg/mL (≈ 0.915 µM); in the experiment with E. coli A2 it was 64 µg/mL (≈ 117 µM); against P. aeruginosa 110, more than 128 µg/mL. Moreover, the MIC against P. aeruginosa ATCC27853 was 1 µg/mL (≈ 1.83 µM); in the experiment on Enterococcus faecalis, more than 128 µg/mL; against S. pneumoniae it was more than 128 µg/mL. The MIC increase in [1] (at the 8th generation) stood at 4 fold; in experiment [1] (at the 20th generation), 16 fold.

In the case of `OC(Cn1cncn1)(Cn1cncn1)c1ccc(F)cc1F` [Fluconazole], the MIC against C. albicans ATCC10231 is 4 µg/mL (≈ 13.1 µM); with C. neoformans 001, 2 µg/mL (≈ 6.53 µM); with C. albicans 006, 4 µg/mL (≈ 13.1 µM); in the experiment on C. neoformans 4906, 128 µg/mL (≈ 418 µM); in the experiment with C. neoformans 6120 it was more than 128 µg/mL; with C. neoformans ATCC28957, 2 µg/mL (≈ 6.53 µM). In addition, the MIC with C. albicans 7248 is more than 128 µg/mL. In addition, the MIC increase in experiment [2] is 4 fold and 8 fold. Moreover, the “survival rate of G. mellonella” value in experiment [3] came out at 40%.

For `CC1(C)S[C@@H]2[C@H](NC(=O)COc3ccccc3)C(=O)N2[C@H]1C(=O)O` [Penicillin V potassium], the MIC in the experiment with Mlicrococcus scarlatinae is more than 128 µg/mL; against P. aeruginosa 103, more than 128 µg/mL; against E. coli ATCC25922 it was 2 µg/mL; with P. aeruginosa CMCC10104, 4 µg/mL; in the experiment with E. coli A2, more than 128 µg/mL; in the experiment with P. aeruginosa 110 it was more than 128 µg/mL. Moreover, the MIC is 2 µg/mL in the experiment with P. aeruginosa ATCC27853, more than 128 µg/mL in the experiment with Enterococcus faecalis and more than 128 µg/mL against S. pneumoniae.

For `CC(=O)N1CCN(c2ccc(OCC3COC(Cn4ccnc4)(c4ccc(Cl)cc4Cl)O3)cc2)CC1` (stereo not drawn) [ketoconazole], the MIC increase in [2] turned out to be 4 fold.

Consider `C[C@H]1COc2c(N3CCN(C)CC3)c(F)cc3c(=O)c(C(=O)O)cn1c23` [levofloxacin], for which the MIC increase in experiment [1] (at the 8th generation) worked out at 4 fold; in experiment [1] (at the 20th generation), 8 fold.

Take Polymyxin B: in experiment [1] (at the 8th generation), the MIC increase amounted to 16 fold.
